# Test results as given in patent US11400085B2, “Method for preparing pharmaceutical composition for preventing or treating cognitive impairment-related disease and pharmaceutical composition for preventing or treating cognitive impairment-related disease prepared by the same” (priority 2018, dated 2022).
# Assay: Comparison of blood concentrations of donepezil after injection or oral administration
# Format: in vivo
# Settings: beagle dog, orally administered
substance,measurement,value
donepezil,blood concentration duration,very short for about one day
